One series concerns the target AmpC β-lactamase. To be noted: cited from earlier work.
The next series can be described thus: Aqueous solubility. Format: physicochemical.
A short description of a further series: Microsomal stability. It counts as in vitro ADME. To be noted: rat.
The test system of the next series is Caco-2. The experiment in a line: Caco-2 permeability. It counts as in vitro ADME. Background: Caco-2 cells form a polarised layer with tight junctions and transporters.
Another series deals with Cyp. Briefly: Cyp inhibition. Format: in vitro ADME.
The nature of the next series: Plasma protein binding. Format: in vitro ADME. The following applies: low free fraction.
The next series has as its target glucocerebrosidase (GC). The following applies: native GC; cited from earlier work.
Another series relates to α-glucosidase. To be noted: cited from earlier work.
A further series deals with α-galactosidase. The following applies: cited from earlier work.
Series [1] concerns β-N-acetylflucosaminidase. The following applies: cited from earlier work.
The next series concerns N370S mutant GC. The following applies: N370S mutant GC fibroblasts, 40 μM; cited from earlier work.
Series [2] deals with Thyroid stimulating hormone receptor (TSHR). The following applies: AID 926; cited from earlier work.
The test system of series [3] is TSHR. The following applies: cited from earlier work.
The subject of series [4] is thyroperoxidase mRNA expression. The following applies: human thyrocytes, 10 μM and 30 μM; cited from earlier work.
The subject of series [5] is TSHR. To be noted: sera from 4 Graves' disease patients, cAMP accumulation; cited from earlier work. (In general: cAMP levels reflect the balance of adenylyl cyclase and phosphodiesterase activity.)
In a further series the test system is LHR. To be noted: cited from earlier work.
The test system of a further series is S. mansoni adult worms. The following applies: 100 μM carboxy-PTIO (NO scavenger); cited from earlier work.
Another series has as its system S. mansoni TGR. To be noted: single 10 μM exposure to 15 nM S. mansoni TGR, NADPH; cited from earlier work.

What is called IC50 is the concentration that inhibits the measured activity by half. One may read the Ki as a measure of affinity in units of concentration, obtained from inhibition or displacement.

Take `CC(C)[C@H](NC(=O)OC(C)(C)C)c1nnc(S(=O)(=O)Cc2c(F)cccc2Cl)o1` [NCGC00067197, (S)-tert-butyl 1-(5-(2-chloro-6-fluorobenzylsulfonyl)-1,3,4-oxadiazol-2-yl)-2-methylpropylcarbamate]: the IC50 at AmpC β-lactamase is 0.016 µM.
As for `Cc1cc(N2CCOCC2)nc2ccc(NC(=O)C3CCCCC3)cc12` [NCGC00092410, N-(4-methyl-2-morpholinoquinolin-6-yl)cyclohexanecarboxamide], the aqueous solubility entry in “Aqueous solubility” is on record as “acceptable”. Moreover, the microsomal stability result in “Microsomal stability” was “acceptable”. For the same molecule, the Caco-2 permeability entry with Caco-2 is recorded as “acceptable”. For the same molecule, in the series with Cyp, the Cyp inhibition result is “no relevant Cyp inhibition”. Also, in “Plasma protein binding”, the plasma protein binding entry is “high level”. Besides, on glucocerebrosidase (GC), the Ki was 0.021 µM. For the same molecule, the “inhibitory capacity for α-glucosidase” value in the series on α-glucosidase is listed as “no inhibitory capacity”. Moreover, the “inhibitory capacity for α-galactosidase” value in the series with α-galactosidase is reported as “no inhibitory capacity”. Moreover, in series [1], the “inhibitory capacity for β-N-acetylflucosaminidase” value is reported as “no inhibitory capacity”. In addition, the “co-localization of mutant GC to the lysosome” value in the series with N370S mutant GC is listed as “co-localization of this mutant form of GC to the lysosome”.
Consider `O=C(O)c1ccc2c(c1)C(=O)N([C@H](Cc1cccc3ccccc13)C(=O)O)C2=O` [NCGC00161790, (R)-2-(1-carboxy-2-(naphthalen-1-yl)ethyl)-1,3-dioxoisoindoline-5-carboxylic acid], for which the Ki at AmpC β-lactamase was 5 µM.
For `COc1ccc(C2Nc3ccccc3C(=O)N2Cc2ccccc2)cc1COc1ccc(NC(C)=O)cc1` (centres unmarked) [NCGC00161876, N-(4-(5-(3-benzyl-4-oxo-1,2,3,4-tetrahydroquinazolin-2-yl)-2-methoxybenzyloxy)phenyl)acetamide], the “TSHR agonism in qHTS” value in series [2] is listed as “agonists”.
Consider `COC/C=C/c1ccc(-c2nc(SC)nc3sc(C(=O)NC(C)(C)C)c(N)c23)cc1` [NCGC00166332], for which, in the series with TSHR [3], the TSHR antagonism entry is given as “antagonist”. For the same molecule, in [4], the “blocking thyroperoxidase mRNA expression” value is “capable of blocking”. In addition, the “blocking the activity of thyroid-stimulating antibodies” value in the series on TSHR [5] is given as “capable of blocking”.
For `COc1cccc(-c2nc(SC)nc3sc(C(=O)NC(C)(C)C)c(N)c23)c1` [Org 41841, reference compound], the LHR agonism entry in the series with LHR was “highly potent”. In addition, in the series with TSHR [3] (lower potency relative to LHR), the “response at TSHR” value was “agonistic response”.
Turning to `N#Cc1c(-c2ccccc2)no[n+]1[O-]` [furoxan, 3-cyano-4-phenyl-1,2,5-oxadiazole 2-oxide], in the series with S. mansoni adult worms, the “worm killing potential in the presence of carboxy-PTIO” value was “largely mitigated”. In the series with S. mansoni TGR, the NO release entry is recorded as “appreciable amount of NO”.
